Measurements as given in ChEMBL document CHEMBL1201862, “PubChem BioAssay data set” (2004).
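Briefly, cells in 96-well plates were exposed to five compound concentrations for 48 h, and endpoints were estimated by linear interpolation. Here, GI50 denotes the concentration required for 50% inhibition of growth.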 Activity calls are given as the source filed them. No stated cut-off is given here; in the data, active = GI50 up to about 1.1 µM and inactive = higher.

Key:
Experiment in all cases: growth of human tumour cells (NCI), 48 h
[1] = tested on: SK-MEL-2
[2] = tested on: SK-MEL-28
[3] = tested on: MDA-N
[4] = tested on: U-251
[5] = tested on: T47D
[6] = tested on: HOP-92
[7] = tested on: KM12
[8] = tested on: HL-60
[9] = tested on: UACC-62
[10] = tested on: SW-620
[11] = tested on: NCI-H226
[12] = tested on: LOX IMVI
[13] = tested on: ACHN
[14] = tested on: BT-549
[15] = tested on: RPMI-8226
[16] = tested on: A549
[17] = tested on: RXF 393
[18] = tested on: PC-3
[19] = tested on: SNB-75

Row | Structure (SMILES) | GI50 [1] | GI50 [2] | GI50 [3] | GI50 [4] | GI50 [5] | GI50 [6] | GI50 [7] | GI50 [8] | GI50 [9] | GI50 [10] | GI50 [11] | GI50 [12] | GI50 [13] | GI50 [14] | GI50 [15] | GI50 [16] | GI50 [17] | GI50 [18] | GI50 [19]
1 | COc1cc(C(=O)Nc2nnc(S(N)(=O)=O)s2)cc(OC)c1OC | > 100 µM (inactive) | > 100 µM (inactive) | > 100 µM (inactive) | > 100 µM (inactive) | > 100 µM (inactive) | 65.6 µM (inactive) | > 100 µM (inactive) | > 100 µM (inactive) | > 100 µM (inactive) | > 100 µM (inactive) | > 100 µM (inactive) | > 100 µM (inactive) | > 100 µM (inactive) | > 100 µM (inactive) | > 100 µM (inactive) | > 100 µM (inactive) | > 100 µM (inactive) | – | –
2 | O=[N+]([O-])C(=C1Nc2ccccc2N1)C(Cl)=C(Cl)Cl | > 100 µM (inactive) | > 100 µM (inactive) | > 100 µM (inactive) | > 100 µM (inactive) | 31.1 µM (inactive) | > 100 µM (inactive) | > 100 µM (inactive) | 65.6 µM (inactive) | > 100 µM (inactive) | > 100 µM (inactive) | > 100 µM (inactive) | > 100 µM (inactive) | > 100 µM (inactive) | – | 70 µM (inactive) | > 100 µM (inactive) | 99.1 µM (inactive) | > 100 µM (inactive) | < 0.01 µM (active)
3 | N#Cc1ccc(Oc2nc3ccccc3nc2-c2ccccc2)cc1 | > 100 µM (inactive) | > 100 µM (inactive) | > 100 µM (inactive) | > 100 µM (inactive) | – | > 100 µM (inactive) | > 100 µM (inactive) | > 100 µM (inactive) | > 100 µM (inactive) | > 100 µM (inactive) | > 100 µM (inactive) | > 100 µM (inactive) | > 100 µM (inactive) | > 100 µM (inactive) | > 100 µM (inactive) | – | > 100 µM (inactive) | > 100 µM (inactive) | –
4 | COC(=O)c1cc(NC(=O)Cn2c3ccccc3c3ccccc32)cn1C | 47.9 µM (inactive) | > 100 µM (inactive) | > 100 µM (inactive) | 26.4 µM (inactive) | > 100 µM (inactive) | – | 38.2 µM (inactive) | > 100 µM (inactive) | 17.1 µM (inactive) | > 100 µM (inactive) | 21.6 µM (inactive) | 53.3 µM (inactive) | 33.7 µM (inactive) | 24.9 µM (inactive) | 19.5 µM (inactive) | 26.7 µM (inactive) | 39.1 µM (inactive) | 31 µM (inactive) | –
5 | O=C1c2c(c3c4ccccc4n(CC4CO4)c3c3[nH]c4ccccc4c23)C(=O)N1Cc1ccccc1 (configuration not stated) | > 100 µM (inactive) | > 100 µM (inactive) | – | > 100 µM (inactive) | – | > 100 µM (inactive) | > 100 µM (inactive) | > 100 µM (inactive) | > 100 µM (inactive) | 77.6 µM (inactive) | 48.6 µM (inactive) | > 100 µM (inactive) | – | – | > 100 µM (inactive) | > 100 µM (inactive) | > 100 µM (inactive) | – | > 10 µM (inactive)
6 | COC(=O)N1C[C@@]2(C=CC3(CC2)OCCO3)c2ccccc21 | > 100 µM (inactive) | 67.1 µM (inactive) | 51.1 µM (inactive) | 41.1 µM (inactive) | > 100 µM (inactive) | 44.1 µM (inactive) | 37.8 µM (inactive) | 11.2 µM (inactive) | 65.5 µM (inactive) | 40.8 µM (inactive) | – | > 100 µM (inactive) | > 100 µM (inactive) | – | 61.1 µM (inactive) | > 100 µM (inactive) | – | 63.7 µM (inactive) | 53.6 µM (inactive)
7 | N#Cc1nsnc1-c1nc(-c2nsnc2C#N)nc(-c2nsnc2C#N)n1 | > 100 µM (inactive) | > 100 µM (inactive) | > 100 µM (inactive) | > 100 µM (inactive) | – | – | 96.2 µM (inactive) | 76.6 µM (inactive) | > 100 µM (inactive) | > 100 µM (inactive) | > 100 µM (inactive) | > 100 µM (inactive) | > 100 µM (inactive) | > 100 µM (inactive) | > 100 µM (inactive) | – | 63.8 µM (inactive) | > 100 µM (inactive) | > 100 µM (inactive)
8 | CCOC(=O)C(=O)N/N=C1\C(=O)Nc2ccccc21 | > 100 µM (inactive) | > 100 µM (inactive) | > 100 µM (inactive) | > 100 µM (inactive) | > 100 µM (inactive) | – | > 100 µM (inactive) | – | > 100 µM (inactive) | > 100 µM (inactive) | > 100 µM (inactive) | > 100 µM (inactive) | > 100 µM (inactive) | > 100 µM (inactive) | > 100 µM (inactive) | > 100 µM (inactive) | > 100 µM (inactive) | > 100 µM (inactive) | > 100 µM (inactive)
9 | C[C@]12CCC(N3CCCC3)CC1=CC[C@@H]1[C@@H]2CC[C@]2(C)C(O)[C@H](n3ccnc3)C[C@@H]12 (some centres not stated) | 41.9 µM (inactive) | 26.1 µM (inactive) | 44.2 µM (inactive) | 75.9 µM (inactive) | – | > 100 µM (inactive) | > 10 µM (inactive) | 5.58 µM (inactive) | 32.1 µM (inactive) | 45.7 µM (inactive) | > 100 µM (inactive) | 34.4 µM (inactive) | 36.7 µM (inactive) | – | 30.8 µM (inactive) | 66.5 µM (inactive) | 17.4 µM (inactive) | 36.7 µM (inactive) | > 10 µM (inactive)
10 | O=C1OC(OC/C(Br)=C(/Br)COC2OC(=O)C(Cl)=C2Cl)C(Cl)=C1Cl (configuration not stated) | 26.2 µM (inactive) | 8.51 µM (inactive) | 8.04 µM (inactive) | 7.6 µM (inactive) | 9.95 µM (inactive) | 9.4 µM (inactive) | 8.75 µM (inactive) | 1.71 µM (inactive) | 14 µM (inactive) | 2.69 µM (inactive) | 26.2 µM (inactive) | 2.69 µM (inactive) | 10.4 µM (inactive) | – | 1.68 µM (inactive) | 22.1 µM (inactive) | 5.09 µM (inactive) | 15.8 µM (inactive) | 18.7 µM (inactive)
11 | c1cc2cc(c1)CN1CCNCCN(CCNCC1)Cc1cccc(c1)CN1CCNCCN(CCNCC1)C2 | > 100 µM (inactive) | > 100 µM (inactive) | > 100 µM (inactive) | > 100 µM (inactive) | > 100 µM (inactive) | – | > 100 µM (inactive) | – | > 100 µM (inactive) | > 100 µM (inactive) | – | > 100 µM (inactive) | > 100 µM (inactive) | > 100 µM (inactive) | > 100 µM (inactive) | > 100 µM (inactive) | – | > 100 µM (inactive) | > 100 µM (inactive)
12 | Cc1cc2c(cc1C)[n+]([O-])c(C(=O)C/C(=N/NC(=S)NN)C(=O)Nc1cccc(C(F)(F)F)c1)c[n+]2[O-] | > 100 µM (inactive) | > 100 µM (inactive) | – | > 100 µM (inactive) | – | > 100 µM (inactive) | > 100 µM (inactive) | > 100 µM (inactive) | > 100 µM (inactive) | > 100 µM (inactive) | > 100 µM (inactive) | – | > 100 µM (inactive) | – | > 100 µM (inactive) | > 100 µM (inactive) | – | – | > 100 µM (inactive)
13 | COc1cc2nc(Cl)nc(NS(=O)(=O)c3cc4ccccc4s3)c2cc1OC | 24.5 µM (inactive) | 0.0335 µM (active) | – | 27.3 µM (inactive) | 19.7 µM (inactive) | 18 µM (inactive) | 23.3 µM (inactive) | – | 16.9 µM (inactive) | 17.1 µM (inactive) | 36.8 µM (inactive) | 23.3 µM (inactive) | 30.8 µM (inactive) | 22.9 µM (inactive) | 18.4 µM (inactive) | 32 µM (inactive) | 16.6 µM (inactive) | 26.1 µM (inactive) | 23.1 µM (inactive)
14 | C=C[C@]1(O)CCC[C@]2(C)C(=O)CCC12C (some centres not stated) | > 100 µM (inactive) | > 100 µM (inactive) | > 100 µM (inactive) | > 100 µM (inactive) | > 100 µM (inactive) | > 100 µM (inactive) | > 100 µM (inactive) | > 100 µM (inactive) | > 100 µM (inactive) | > 100 µM (inactive) | > 100 µM (inactive) | > 100 µM (inactive) | > 100 µM (inactive) | – | > 100 µM (inactive) | > 100 µM (inactive) | > 100 µM (inactive) | > 100 µM (inactive) | –
15 | O=c1cc(-c2ccccc2F)[nH]c2cc3c(cc12)OCO3 | 0.1 µM (active) | > 32.9 µM (inactive) | < 0.01 µM (active) | 0.0995 µM (active) | > 100 µM (inactive) | 0.212 µM (active) | 0.0344 µM (active) | 0.0454 µM (active) | 0.042 µM (active) | 0.0356 µM (active) | 0.184 µM (active) | 0.119 µM (active) | 0.149 µM (active) | – | 0.0631 µM (active) | 0.204 µM (active) | 0.0813 µM (active) | 0.0495 µM (active) | 0.247 µM (active)
16 | O=S(=O)(O)CCS [MESNA] | > 100 µM (inactive) | > 100 µM (inactive) | > 100 µM (inactive) | > 100 µM (inactive) | > 100 µM (inactive) | > 100 µM (inactive) | > 100 µM (inactive) | – | > 100 µM (inactive) | > 100 µM (inactive) | > 100 µM (inactive) | > 100 µM (inactive) | > 100 µM (inactive) | – | – | > 100 µM (inactive) | > 100 µM (inactive) | > 100 µM (inactive) | 39.7 µM (inactive)
